These results are taken from US7667044B2, “Compounds for the treatment of neurological disorders” (Probiodrug AG, priority 2003, dated 2010).

The test system of experiment [1] is human neuroblastoma SH-SY5Y cells. In words: β-Amyloid ELISA, secreted β-amyloid peptides in conditioned medium. Type of experiment: cell-based. The settings on record: Aβ 1-42 (FIG. 2), inhibitor 20 μM, 24 hours, untreated = 100%, read-out: Extracellular Aβ-concentration, % of control. The method, then: The human glioma cell line, U-343 and the human neuroblastoma cell line, SH-SY5Y were maintained in Dulbecco's modified Eagle's medium (DMEM) containing 10% fetal bovine serum (Gibco BRL, Karlsruhe, Germany) and incubated at 37° C. in a 5% CO2 atmosphere. Culture media contained in general 60 μg/ml gentamycin (Gibco BRL, Karlsruhe, Germany).
To quantify intracellular and extracellular concentrations of β-amyloid peptides, 1-40 and 142, U-343 and SH-SY5Y cells were cultured in 6 well plates (1.5×10^6 cells/well) and treated with specific PEP inhibitors (20 μM each) for 24 hours. For quantitation of secreted β-amyloid peptides the conditioned medium was collected and concentrated by lyophylisation. Likewise, after determination of the cell numbers/well (casy cell counter I, Schärfe System, Reutlingen, Germany), cells were lyzed with cell extraction buffer (Biosource, Solingen, Germany) according to the manufacturer's protocol. The protein concentration was determined by the method of Bradford (1976). Aliquots of 100 μl were used to quantify β-amyloid peptides 1-40 and 1-42 in quadruplicate by ELISA, (IBL, Hamburg, Germany) following the manufacturer's instructions. All obtained intracellular and extracellular concentrations were normalized to cell numbers and protein concentration, respectively.
For the calculation of the concentration of β-amyloid peptides 1-40 and 1-42 in the cell culture medium after PEP-inhibitor treatment, the basal concentration of β-amyloid peptides 1-40 and 1-42 in the cell culture medium of untreated cell samples was set to 100%. The results of the measurement of the concentration of β-amyloid peptides 1-40 and 1-42 with PEP-inhibitor treated cells are presented as % of the untreated cell samples.
(In general: An ELISA detects its analyte on a solid surface through an enzyme-linked reagent.)

A further experiment concerns human glial U-343 cells. In words: IL-6 ELISA, basal secretion of IL-6 into conditioned medium. The settings on record: inhibitor 20 μM, 24 hours, serum-free medium, untreated = 100%, read-out: Extracellular IL-6 concentration, % of untreated cells. It is filed as cell-based. The method, then: To analyze basal secretion of IL-6, human glial U-343 cells were cultured in 6 well plates (1.5×10^6 cells/well, Greiner) and treated with specific PEP inhibitors as indicated (20 μM each) for 24 hours in serum-free D-MEM medium (invitrogen). Aliquots of 40 μl conditioned medium were used to quantify the amount of secreted IL-6 by an human-specific IL-6 ELISA (Biosource) following the manufacturer's instructions. All data were obtained in quadruplicate. For the calculation of the IL-6 concentration in the cell culture medium after PEP-inhibitor treatment, the basal IL-6 concentration of the cell culture medium of untreated cell samples was set to 100%. The results of the measurement of the IL-6 concentration with PEP-inhibitor treated cells are presented as % of the untreated cell samples.

Experiment [2] has as its target T1, Recombinant human prolyl oligopeptidase (Homo sapiens, UniProt P48147).
T1 construct: made in house; host or cells: E. coli
T1 sequence (P48147 1-710): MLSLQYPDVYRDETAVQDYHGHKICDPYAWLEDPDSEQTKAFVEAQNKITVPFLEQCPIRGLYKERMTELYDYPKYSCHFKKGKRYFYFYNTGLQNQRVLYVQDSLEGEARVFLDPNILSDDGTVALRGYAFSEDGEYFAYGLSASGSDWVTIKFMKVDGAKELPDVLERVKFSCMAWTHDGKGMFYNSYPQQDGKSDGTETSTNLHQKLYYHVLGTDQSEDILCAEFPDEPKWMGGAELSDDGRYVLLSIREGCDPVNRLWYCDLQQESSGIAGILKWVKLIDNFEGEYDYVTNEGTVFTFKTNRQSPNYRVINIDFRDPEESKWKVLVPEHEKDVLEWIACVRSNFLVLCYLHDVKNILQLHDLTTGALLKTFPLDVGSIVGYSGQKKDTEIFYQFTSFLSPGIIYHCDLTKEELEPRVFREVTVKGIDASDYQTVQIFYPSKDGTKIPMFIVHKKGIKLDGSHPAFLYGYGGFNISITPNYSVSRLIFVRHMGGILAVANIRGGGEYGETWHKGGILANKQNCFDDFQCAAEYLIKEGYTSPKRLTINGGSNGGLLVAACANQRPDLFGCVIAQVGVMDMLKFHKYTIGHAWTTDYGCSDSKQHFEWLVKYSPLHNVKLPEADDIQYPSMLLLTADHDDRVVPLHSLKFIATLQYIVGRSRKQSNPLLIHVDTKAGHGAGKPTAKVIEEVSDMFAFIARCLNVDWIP
Put plainly: Determination of IC50- and Ki-values of PEP-inhibitors, chromogenic substrate Cbz-Gly-L-Pro-pNA. The settings on record: for Ki: 4 substrate and 7 inhibitor concentrations, competitive inhibition fit, pH 7.6, 30° C.; for IC50: substrate 0.15 mM Cbz-Gly-L-Pro-pNA, HEPES buffer pH 7.6, 30° C. Type of experiment: biochemical. The method, then:
Recombinant human prolyl oligopeptidase was used for measurement. Recombinant expression was performed in E. coli under standard conditions as described elsewhere in the state of the art.
For activity measurements the chromogenic substrate Cbz-Gly-L-Pro-pNA was used in HEPES buffer pH 7.6 containing 50 mM HEPES, 200 mM NaCl, 1 mM EDTA, 1 mM DTT, 0.006% Brij35. Measurements were carried out at 30° C. Release of pNA were monitored continuously at 405 nm.
IC50 values were calculated using non-linear regression to a 4-parameter equation (Prism 4.0, GraphPad).
Calculations were performed by multiple non-linear regression analysis to the equation for competitive inhibition using GraFit 5.0 Software (Erithacus Software).

By Ki is commonly meant a measure of affinity in units of concentration, obtained from inhibition or displacement. One may read the IC50 as the point on the concentration scale where inhibition reaches its midpoint. `O=C(N[C@H](Cc1ccccc1)C(=O)N1CCCC1C(=O)c1nc2ccccc2s1)OCc1ccccc1` (stereo partly drawn) [Example 1, 2-[Cbz-L-Phe-L-Pro]Benzothiazole]: in experiment [1], the activity at 20 µM came to 447%. Further, in the experiment on human glial U-343 cells, the activity at 20 µM turned out to be 14.3%. In addition, in experiment [2], the Ki turned out to be 0.057 nM and the IC50 is 6 nM.
On to `C[C@@H](NC(=O)OCc1ccccc1)C(=O)N1CCC[C@H]1C(=O)c1nc2ccccc2s1` [Example 2, 2-[Cbz-L-Ala-L-Pro]Benzothiazole], for which the activity at 20 µM in experiment [1] is 123%. Further, in the experiment on human glial U-343 cells, the activity at 20 µM is 20.1%. For the same compound, in experiment [2], the Ki was 0.033 nM and the IC50 was determined as 0.12 nM.
For the compound `C[C@H](NC(=O)[C@@H](Cc1ccccc1)NC(=O)OCc1ccccc1)C(=O)c1nc2ccccc2s1` [Example 3, 2-[Cbz-L-Phe-L-Ala]Benzothiazole], the activity at 20 µM in experiment [1] stood at 546%; in the experiment on human glial U-343 cells, 35.2%. Besides, the IC50 in experiment [2] stood at 1400 nM.
For the compound `O=C(N[C@@H](Cc1ccccc1)C(=O)N1CCC[C@H]1C(=O)c1nccs1)OCc1ccccc1` [Example 4, 2-[Cbz-L-Phe-L-Pro]Thiazole], the activity at 20 µM in experiment [1] was determined as 519%. Moreover, the activity at 20 µM in the experiment with human glial U-343 cells amounted to 14.6%. In addition, in experiment [2], the inhibitory constant (Ki) stood at 6.8 nM and the IC50 came out at 15 nM.
For `N=C(N)NCCC[C@H](NC(=O)OCc1ccccc1)C(=O)N1CCC[C@H]1C(=O)c1nc2ccccc2s1` [Example 5, 2-[Cbz-L-Arg-L-Pro]Benzothiazole], the activity at 20 µM in experiment [1] stood at 94%. The activity at 20 µM in the experiment on human glial U-343 cells worked out at 109%. Besides, in experiment [2], the Ki is 3.2 nM and the IC50 was determined as 5.4 nM.
For `O=C(O)C[C@H](NC(=O)OCc1ccccc1)C(=O)N1CCC[C@H]1C(=O)c1nc2ccccc2s1` [Example 6, 2-[Cbz-L-Asp-L-Pro]Benzothiazole], in that order: 96.2%, 58%, 12 nM and 17 nM.
For `C=CCOC(=O)N[C@@H](Cc1ccccc1)C(=O)N1CCC[C@H]1C(=O)c1nc2ccccc2s1` [Example 7, 2-[Aloc-L-Phe-L-Pro]Benzothiazole], in that order: 528%, 17%, 8.2 nM and 9.7 nM.
As for `NCCCC[C@H](NC(=O)OCc1ccccc1)C(=O)N1CCC[C@H]1C(=O)c1nc2ccccc2s1` [Example 8, 2-[Cbz-L-Lys-L-Pro]Benzothiazole], the values for the activity at 20 µM (in experiment [1]; in the experiment with human glial U-343 cells) were 87.5% and 160%, respectively. Further, the inhibitory constant (Ki) in experiment [2] came to 0.038 nM. Also, in experiment [2], the IC50 was 2 nM.
For `CC(C)(C)OC(=O)N[C@@H](Cc1ccccc1)C(=O)N1CCC[C@H]1C(=O)c1nc2ccccc2s1` [Example 9, 2-[Boc-L-Phe-L-Pro]Benzothiazole], in that order: 368%, 33.1%, 6 nM and 29 nM.
For `C[C@H](NC(=O)OCc1ccccc1)C(=O)N1CCC[C@H]1C(=O)c1nccs1` [Example 10, 2-[Cbz-L-Ala-L-Pro]Thiazole], in that order: 157%, 66%, 2.6 nM and 4.3 nM.
As to `O=C(N[C@@H](Cc1ccccc1)C(=O)N1CCC[C@H]1C(=O)c1ccc[nH]1)OCc1ccccc1` [Example 11], in experiment [1], the activity at 20 µM worked out at 340%. Also, the activity at 20 µM in the experiment with human glial U-343 cells was 52.1%. In experiment [2], the inhibitory constant (Ki) came to 2.9 nM and the 50% inhibitory concentration (IC50) was 7600 nM.
